Tested on: Toledo cells
Assay: Cell proliferation assay (MTS), Toledo cells
Assay type: cell-based
Settings: Homo sapiens, 72 h
Description: MTS testing kit was purchased from Promega (Madison, WI, USA). The RPMI-1640, Fetal bovine serum and Penicillin-Streptomycin were purchased from BI (Biological Industries, Beit Haemek, Israel). Dimethyl sulfoxide (DMSO) was purchased from Sigma (St. Louis., MO, USA). Toledo (ATCC catalog #: CRL-2631) cells were cultured in RPMI-1640 supplemented with Penicillin-Streptomycin and 10% FBS.
To investigate whether a compound is able to inhibit the activity of BCL-2 in cells, a mechanism-based assay using Toledo lines was developed. In this assay, the inhibition of BCL-2 was reflected by the inhibition of cell proliferation of Toledo cells. Cells were plated into 96-well plates at the optimized cell density of 30000 cells/well. Plates were incubated at 37° C., with 5% CO2 for 4 h. Compounds were serially diluted and added to the plates with the final concentrations of 10000, 3333.3, 1111.1, 370.4, 123.5, 41.2, 13.7, 4.6 and 1.5 nM. Plates were incubated at 37° C., with 5% CO2 for 72 h. 20 μl MTS was added into each well and the plates were incubated at 37° C., with 5% CO2 for exactly 2 h. The absorbance was measured by a microplate reader at 490 nm. IC50 was calculated using GraphPad Prism 5.0 software.

Structure (SMILES) | IC50
CC(=O)N1CCN(C2CC3(CCN(c4ccc(C(=O)NS(=O)(=O)c5cnc(NC[C@H]6CC[C@](C)(O)CC6)c([N+](=O)[O-])c5)c(Oc5cnc6[nH]cc(F)c6c5)c4)CC3)C2)[C@H](c2ccccc2C(C)C)C1 [Example 148, 4-(2-((R)-4-acetyl-2-(2-isopropylphenyl)piperazin-1-yl)-7-azaspiro[3.5]nonan-7-yl)-2-((3-fluoro-1H-pyrrolo[2,3-b]pyridin-5-yl)oxy)-N-((6-((((1r,4r)-4-hydroxy-4-methylcyclohexyl)methyl)amino)-5-nitropyridin-3-yl)sulfonyl)benzamide] | 1 nM
COc1nc2[nH]cc(F)c2cc1Oc1cc(N2CCC3(CC2)CC(N2CCN(C(C)=O)C[C@H]2c2ccccc2C(C)C)C3)ccc1C(=O)NS(=O)(=O)c1cnc(NC[C@H]2CC[C@](C)(O)CC2)c([N+](=O)[O-])c1 [Example 146, 4-(2-((R)-4-acetyl-2-(2-isopropylphenyl)piperazin-1-yl)-7-azaspiro[3.5]nonan-7-yl)-2-((3-fluoro-6-methoxy-1H-pyrrolo[2,3-b]pyridin-5-yl)oxy)-N-((6-((((1r,4r)-4-hydroxy-4-methylcyclohexyl)methyl)amino)-5-nitropyridin-3-yl)sulfonyl)benzamide] | 1 nM
COc1cc(CN2CCC(N3CC4(CCN(c5ccc(C(=O)NS(=O)(=O)c6cnc(NC[C@H]7CC[C@](C)(O)CC7)c([N+](=O)[O-])c6)c(Oc6cc7c(F)c[nH]c7nc6OC)c5)CC4)C3)C(c3ccccc3C(C)C)C2)ccc1C1CC1 (some centres unmarked) [Example 24, 4-(2-(1-(4-cyclopropyl-3-methoxybenzyl)-3-(2-isopropylphenyl)piperidin-4-yl)-2,7-diazaspiro[3.5]nonan-7-yl)-2-((3-fluoro-6-methoxy-1H-pyrrolo[2,3-b]pyridin-5-yl)oxy)-N-((6-((((1r,4r)-4-hydroxy-4-methylcyclohexyl)methyl)amino)-5-nitropyridin-3-yl)sulfonyl)benzamide] | 1 nM
CC(C)c1ccccc1[C@@H]1CN(Cc2ccc(OC(F)F)cc2)CCN1C1CC2(CCN(c3ccc(C(=O)NS(=O)(=O)c4cnc(NC[C@H]5CC[C@](C)(O)CC5)c([N+](=O)[O-])c4)c(Oc4cnc5[nH]cc(F)c5c4)c3)CC2)C1 [Example 343, 4-(2-((R)-4-(4-(difluoromethoxy)benzyl)-2-(2-isopropylphenyl)piperazin-1-yl)-7-azaspiro[3.5]nonan-7-yl)-2-((3-fluoro-1H-pyrrolo[2,3-b]pyridin-5-yl)oxy)-N-((6-((((1r,4r)-4-hydroxy-4-methylcyclohexyl)methyl)amino)-5-nitropyridin-3-yl)sulfonyl)benzamide] | 1 nM

Tested on: RS4;11-BCL-2 G101V cells
Assay: Cell proliferation assay (MTS), RS4;11-BCL-2 G101V engineered cells
Assay type: cell-based
Settings: Homo sapiens, 120 h, read-out: RS4, 11 BCL2-G101V IC50
Description: MTS testing kit was purchased from Promega (Madison, WI, USA). The RPMI-1640, Fetal bovine serum and Penicillin-Streptomycin were purchased from BI (Biological Industries, Beit Haemek, Israel). Puromycin was purchased from Beyotime (shanghai, China). Dimethyl sulfoxide (DMSO) was purchased from Sigma (St. Louis., MO, USA). RS4;11-BCL-2 G101V (Cobioer Lot. #: CBD2021063013P4), RS4;11-BCL-2 D103E (Cobioer Lot. #: CBD2021063013P4), RS4;11-BCL-2 D103Y (Cobioer Lot. #: CBD2022012101P4) and RS4;11-BCL-2 F104L (Cobioer Lot. #: CBD2021063014P4) cells were cultured in RPMI1640 supplemented with 1 ug/mL puromycin, 100 U/mL Penicillin-Streptomycin and 10% FBS.
To investigate whether a compound is able to inhibit the activity of BCL-2 mutation in cells, a mechanism-based assay using engineered cell lines stably overexpressing BCL-2 mutation (RS4;11-BCL-2 G101V, RS4;11-BCL-2 D103E, RS4;11-BCL-2 D103Y, and RS4;11-BCL-2 F104L) was developed. In this assay, the inhibition of BCL-2 mutation was reflected by the inhibition of cell proliferation of engineered RS4;11 cells. Cells were plated into 96-well plates at optimized cell density (RS4;11-BCL-2 G101V: 5000 cells/well; RS4;11-BCL-2 D103E: 7500 cells/well; RS4;11-BCL-2 D103Y: 7500 cells/well; RS4;11-BCL-2 F104L: 5000 cells/well). Plates were incubated at 37° C., with 5% CO2 for 4 h (RS4;11-BCL-2 G101V, RS4;11-BCL-2 F104L) and 24 h (RS4;11-BCL-2 D103E, RS4;11-BCL-2 D103Y), respectively. Compounds were serially diluted and added to the plates with the final concentrations of 10000, 3333.3, 1111.1, 370.4, 123.5, 41.2, 13.7, 4.6 and 1.5 nM. Plates were incubated at 37° C., with 5% CO2 for 120 h (RS4; 11-BCL-2 G101V, RS4; 11-BCL-2 F104L) and 72 h (RS4;11-BCL-2 D103E, RS4;11-BCL-2 D103Y), respectively. 20 μl MTS was added into each well and the plates were incubated at 37° C., with 5% CO2 exactly for 2 h. The absorbance was measured by a microplate reader at 490 nm. IC50 values were calculated using GraphPad Prism 8.0 software.

Structure (SMILES) | IC50
CC(C)c1ccccc1[C@@H]1CN(C)CCN1C1CC2(CCN(c3ccc(C(=O)NS(=O)(=O)c4cnc(NC[C@H]5CC[C@](C)(O)CC5)c([N+](=O)[O-])c4)c(Oc4cnc5[nH]cc(F)c5c4)c3)CC2)C1 [Example 139, 2-((3-fluoro-1H-pyrrolo[2,3-b]pyridin-5-yl)oxy)-N-((6-((((1r,4r)-4-hydroxy-4-methylcyclohexyl)methyl)amino)-5-nitropyridin-3-yl)sulfonyl)-4-(2-((R)-2-(2-isopropylphenyl)-4-methylpiperazin-1-yl)-7-azaspiro[3.5]nonan-7-yl)benzamide] | 1 nM
COc1ncc(CN2CCN(C3CC4(CCN(c5ccc(C(=O)NS(=O)(=O)c6cnc(NC[C@H]7CC[C@](C)(O)CC7)c([N+](=O)[O-])c6)c(Oc6cnc7[nH]cc(F)c7c6)c5)CC4)C3)[C@H](c3ccccc3C(C)C)C2)cn1 [Example 360, 2-((3-fluoro-1H-pyrrolo[2,3-b]pyridin-5-yl)oxy)-N-((6-((((1r,4r)-4-hydroxy-4-methylcyclohexyl)methyl)amino)-5-nitropyridin-3-yl)sulfonyl)-4-(2-((R)-2-(2-isopropylphenyl)-4-((2-methoxypyrimidin-5-yl)methyl)piperazin-1-yl)-7-azaspiro[3.5]nonan-7-yl)benzamide] | 1 nM
CCOc1nc2[nH]cc(F)c2cc1Oc1cc(N2CCC3(CC2)CC(N2CCN(Cc4ccc(OC)c5oc(C)nc45)C[C@H]2c2ccccc2C(C)C)C3)ccc1C(=O)NS(=O)(=O)c1cnc(NC[C@H]2CC[C@](C)(O)CC2)c([N+](=O)[O-])c1 [Example 246, 2-((6-ethoxy-3-fluoro-1H-pyrrolo[2,3-b]pyridin-5-yl)oxy)-N-((6-((((1r,4r)-4-hydroxy-4-methylcyclohexyl)methyl)amino)-5-nitropyridin-3-yl)sulfonyl)-4-(2-((R)-2-(2-isopropylphenyl)-4-((7-methoxy-2-methylbenzo[d]oxazol-4-yl)methyl)piperazin-1-yl)-7-azaspiro[3.5]nonan-7-yl)benzamide] | 2 nM
CC(C)c1ccccc1[C@@H]1CN(C2COC2)CCN1C1CC2(CCN(c3ccc(C(=O)NS(=O)(=O)c4cnc(NC[C@H]5CC[C@](C)(O)CC5)c([N+](=O)[O-])c4)c(Oc4cnc5[nH]cc(F)c5c4)c3)CC2)C1 [Example 205, 2-((3-fluoro-1H-pyrrolo[2,3-b]pyridin-5-yl)oxy)-N-((6-((((1r,4r)-4-hydroxy-4-methylcyclohexyl)methyl)amino)-5-nitropyridin-3-yl)sulfonyl)-4-(2-((R)-2-(2-isopropylphenyl)-4-(oxetan-3-yl)piperazin-1-yl)-7-azaspiro[3.5]nonan-7-yl)benzamide] | 1 nM
COc1ccc(CN2CCN(C3CC4(CCN(c5ccc(C(=O)NS(=O)(=O)c6cnc(NC[C@H]7CC[C@](C)(O)CC7)c([N+](=O)[O-])c6)c(Oc6cnc7[nH]cc(F)c7c6)c5)CC4)C3)[C@H](c3ccccc3C(C)C)C2)nc1 [Example 256, 2-((3-fluoro-1H-pyrrolo[2,3-b]pyridin-5-yl)oxy)-N-((6-((((1r,4r)-4-hydroxy-4-methylcyclohexyl)methyl)amino)-5-nitropyridin-3-yl)sulfonyl)-4-(2-((R)-2-(2-isopropylphenyl)-4-((5-methoxypyridin-2-yl)methyl)piperazin-1-yl)-7-azaspiro[3.5]nonan-7-yl)benzamide] | 1 nM
COc1nc2[nH]cc(F)c2cc1Oc1cc(N2CCC3(CC2)CC(N2CCN(C4CC4)C[C@H]2c2ccccc2C(C)C)C3)ccc1C(=O)NS(=O)(=O)c1cnc(NC[C@H]2CC[C@](C)(O)CC2)c([N+](=O)[O-])c1 [Example 143, 4-(2-((R)-4-cyclopropyl-2-(2-isopropylphenyl)piperazin-1-yl)-7-azaspiro[3.5]nonan-7-yl)-2-((3-fluoro-6-methoxy-1H-pyrrolo[2,3-b]pyridin-5-yl)oxy)-N-((6-((((1r,4r)-4-hydroxy-4-methylcyclohexyl)methyl)amino)-5-nitropyridin-3-yl)sulfonyl)benzamide] | 1 nM
COc1cc(CN2CCN(C3CC4(CCN(c5ccc(C(=O)NS(=O)(=O)c6cnc(NC[C@H]7CC[C@](C)(O)CC7)c([N+](=O)[O-])c6)c(Oc6cnc7[nH]cc(F)c7c6)c5)CC4)C3)[C@H](c3ccccc3C(C)C)C2)ncc1C1CC1 [Example 251, 4-(2-((R)-4-((5-cyclopropyl-4-methoxypyridin-2-yl)methyl)-2-(2-isopropylphenyl)piperazin-1-yl)-7-azaspiro [3.5]nonan-7-yl)-2-((3-fluoro-1H-pyrrolo[2,3-b]pyridin-5-yl)oxy)-N-((6-((((1r,4r)-4-hydroxy-4-methylcyclohexyl)methyl)amino)-5-nitropyridin-3-yl)sulfonyl)benzamide] | 1 nM

Reference: patent publication US20250122191A1, “COMPOUNDS AS BCL-2 INHIBITORS” (Fochon Biosciences, Ltd, priority 2021, published 2025)
